Broadly, the melting point is the temperature, or range, at which the solid turns liquid.

Each structure is given as a SMILES string.

One series concerns the target FGFR1 (h) (Homo sapiens, UniProt P11362). Briefly: FGFR1 (enzymatic assay), TR-FRET. In kind it is biochemical.
The target in another series is FGFR2 (h) (Homo sapiens, UniProt P21802). Briefly: FGFR2 (enzymatic assay), TR-FRET. In kind it is biochemical. To be noted: 0.4 μM ATP; pIC50 = -log IC50 (M); read-out: FGFR 2 pIC50 (converted).
The next series has as its target FGFR3 (h) (Homo sapiens, UniProt P22607). Briefly: FGFR3 (enzymatic assay), TR-FRET. The format is biochemical. The following applies: 25 μM ATP; pIC50 = -log IC50 (M); read-out: FGFR3 pIC50 (converted). In general terms: In TR-FRET formats the signal depends on donor and acceptor labels being close together.
In a further series the target is FGFR4 (h) (Homo sapiens, UniProt P22455). Briefly: FGFR4 (enzymatic assay), TR-FRET. To be noted: 5 μM ATP; pIC50 = -log IC50 (M); read-out: FGFR 4 pIC50 (converted). In kind it is biochemical.
A further series concerns the target KDR (h) (Homo sapiens, UniProt P35968). Briefly: KDR (VEGFR2) (enzymatic assay), TR-FRET. In kind it is biochemical. To be noted: 3 μM ATP; pIC50 = -log IC50 (M); read-out: VEGFR KDR pIC50 (converted). The protocol:
KDR (VEGFR2) (Enzymatic Assay)
In a final reaction volume of 30 μL, KDR (h) (150 ng/ml) was incubated with 50 mM HEPES pH 7.5, 6 mM MnCl2, 1 mM DTT, 0.1 mM Na3VO4, 0.01% Triton-X-100, 500 nM Btn-Flt3 and 3 μM ATP in the presence of compound (1% DMSO final). After incubation for 120 minutes at room temperature the reaction was stopped with 2.27 nM EU-anti P-Tyr, 7 mM EDTA, 31.25 nM SA-XL-665 and 0.02% BSA which was present for 60 minutes at room temperature. Time-Resolved Fluorescence Resonance Energy Transfer (TR-FRET) signal (ex340 nm. Em 620 nm, em 655 nm) was measured afterwards and results are expressed in RFU (Relative Fluorescence Units). In this assay, the inhibitory effect of different compound concentrations (range 10 μM to 0.1 nM) was determined and used to calculate an IC50 (M) and pIC50 (−log IC50) value.

For series [1], the target named is T1, Ba/F3-FGFR1-transfected cells (Homo sapiens, UniProt P11362).
T1 construct: other: minus IL3; 24 hours, Alamar Blue
Nature of the series: Ba/F3-FGFR1 (minus IL3 or plus IL3) cellular proliferation assay. The following applies: 24 hours, Alamar Blue. In kind it is cell-based. The protocol: Ba/F3-FGFR1 (Minus IL3 or Plus IL3) (Cellular Proliferation Assay)
(§1) In a 384 well plate, 100 nl of compound dilution in DMSO was sprayed before adding 50 μl cell culture medium (phenol red free RPMI-1640, 10% FBS, 2 mM L-Glutamine and 50 μg/ml Gentamycin) containing 20000 cells per well of Ba/F3-FGFR1-transfected cells. Cells were put in an incubator at 37° C. and 5% CO2. After 24 hours, 10 μl of Alamar Blue solution (0.5 mM K3Fe(CN)6, 0.5 mM K4Fe(CN)6, 0.15 mM Resazurin and 100 mM Phosphate Buffer) was added to the wells, incubated for 4 hours at 37° C. and 5% CO2 before RFU's (Relative Fluorescence Units) (ex. 540 nm., em. 590 nm.) were measured in a fluorescence plate reader.
(§2) In this assay, the inhibitory effect of different compound concentrations (range 10 μM to 0.1 nM) was determined and used to calculate an IC50 (M) and pIC50 (−log IC50) value. As a counterscreen the same experiment was performed in the presence of 10 ng/ml murine IL3.
(In general: Alamar Blue is a resazurin reagent that responds to reducing activity.)

Series [2] has as its target T2, Ba/F3-FGFR3-transfected cells (Homo sapiens, UniProt P22607, cells depend on it, form not given).
T2 construct: BAF3-FGFR3 (MIN IL3 pIC50); other: minus IL3; 24 hours, Alamar Blue
Nature of the series: Ba/F3-FGFR3 (minus IL3 or plus IL3) cellular proliferation assay. The format is cell-based. The following applies: 24 hours, Alamar Blue. Here is the method: Ba/F3-FGFR3 (Minus IL3 or Plus IL3) (Cellular Proliferation Assay)
as §1, with “Ba/F3-FGFR3-transfected” for “Ba/F3-FGFR1-transfected”
as §2

For series [3], the target named is T3, Ba/F3-KDR-transfected cells (Homo sapiens, UniProt P35968, cells depend on it, form not given).
T3 construct: BAF3-KDR (MIN IL3 pIC50); other: minus IL3; 24 hours, Alamar Blue
T3 sequence (P35968 whole entry, looked up, change not shown): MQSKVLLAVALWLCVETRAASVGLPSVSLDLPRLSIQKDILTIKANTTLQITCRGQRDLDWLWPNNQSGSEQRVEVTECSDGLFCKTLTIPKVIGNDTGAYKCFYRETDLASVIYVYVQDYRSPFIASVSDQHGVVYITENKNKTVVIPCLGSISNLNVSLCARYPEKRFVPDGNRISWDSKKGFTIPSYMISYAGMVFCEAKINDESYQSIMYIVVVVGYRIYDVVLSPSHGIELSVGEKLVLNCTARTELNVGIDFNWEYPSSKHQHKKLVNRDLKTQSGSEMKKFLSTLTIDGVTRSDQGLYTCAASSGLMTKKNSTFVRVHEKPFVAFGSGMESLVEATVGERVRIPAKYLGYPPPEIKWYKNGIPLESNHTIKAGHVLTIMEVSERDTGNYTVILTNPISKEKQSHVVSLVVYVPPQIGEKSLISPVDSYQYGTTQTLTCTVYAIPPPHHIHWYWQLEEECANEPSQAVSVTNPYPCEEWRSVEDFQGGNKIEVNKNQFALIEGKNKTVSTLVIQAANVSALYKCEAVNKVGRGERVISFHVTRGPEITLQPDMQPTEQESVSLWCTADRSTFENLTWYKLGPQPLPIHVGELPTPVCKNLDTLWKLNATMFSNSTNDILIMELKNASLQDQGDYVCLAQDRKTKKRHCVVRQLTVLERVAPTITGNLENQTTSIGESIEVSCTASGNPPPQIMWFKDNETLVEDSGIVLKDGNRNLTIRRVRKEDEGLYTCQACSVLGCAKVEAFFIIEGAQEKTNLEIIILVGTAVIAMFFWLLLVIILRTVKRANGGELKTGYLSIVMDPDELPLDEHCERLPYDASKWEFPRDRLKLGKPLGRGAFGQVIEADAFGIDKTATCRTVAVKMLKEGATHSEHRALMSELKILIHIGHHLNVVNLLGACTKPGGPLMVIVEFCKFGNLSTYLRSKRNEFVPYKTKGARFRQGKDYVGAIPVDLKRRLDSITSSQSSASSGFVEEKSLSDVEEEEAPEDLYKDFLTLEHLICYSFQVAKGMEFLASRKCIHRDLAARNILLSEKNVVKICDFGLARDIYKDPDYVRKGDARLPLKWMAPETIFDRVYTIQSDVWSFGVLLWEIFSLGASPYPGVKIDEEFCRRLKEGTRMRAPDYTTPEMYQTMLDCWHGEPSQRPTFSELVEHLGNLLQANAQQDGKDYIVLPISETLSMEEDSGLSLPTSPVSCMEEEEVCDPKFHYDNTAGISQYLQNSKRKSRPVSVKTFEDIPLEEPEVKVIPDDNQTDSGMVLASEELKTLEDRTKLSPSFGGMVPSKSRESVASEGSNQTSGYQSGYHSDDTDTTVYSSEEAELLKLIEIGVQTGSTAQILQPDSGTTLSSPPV
Briefly: Ba/F3-KDR (minus IL3 or plus IL3) cellular proliferation assay. In kind it is cell-based. To be noted: 24 hours, Alamar Blue. The protocol:
Ba/F3-KDR (Minus IL3 or Plus IL3) (Cellular Proliferation Assay)
as §1, with “Ba/F3-KDR-transfected” for “Ba/F3-FGFR1-transfected”
as §2

In series [4] the target is Ba/F3-FGFR4-transfected cells (Homo sapiens, UniProt P22455, cells depend on it, form not given). Briefly: Ba/F3-FGFR4 cellular proliferation assay. In kind it is cell-based. To be noted: 24 hours, Alamar Blue. The protocol:
Ba/F3-FGFR4 (Cellular Proliferation Assay)
as §1, with “Ba/F3-FGFR4-transfected” for “Ba/F3-FGFR1-transfected”
In this assay, the inhibitory effect of different compound concentrations (range 10 μM to 0.1 nM) was determined and used to calculate an IC50 (M) and pIC50 (−log IC50) value.

A further series concerns the target T4, FGFR1 (Homo sapiens, UniProt P11362).
T4 construct: purchased DiscoveRx Corporation
Nature of the series: Enzyme binding assay (KINOMEscan) FGFR1. To be noted: FGFR1_pKd, pKd = -log Kd (M). Here is the method: (§3) Enzyme Binding Assays (KINOMEscan®)
(§4) Kinase enzyme binding affinities of compounds disclosed herein were determined using the KINOMEscan® technology performed by DiscoveRx Corporation, San Diego, Calif., USA (www.kinomescan.com).

The target in the next series is T5, FGFR2 (Homo sapiens, UniProt P21802).
T5 construct: purchased DiscoveRx Corporation
Briefly: Enzyme binding assay (KINOMEscan) FGFR2. The following applies: pKd = -log Kd (M), read-out: FGFR2_pKd (converted). The protocol: as §3, §4

The next series deals with T6, FGFR3 (Homo sapiens, UniProt P22607).
T6 construct: purchased DiscoveRx Corporation
T6 sequence (P22607 23-806): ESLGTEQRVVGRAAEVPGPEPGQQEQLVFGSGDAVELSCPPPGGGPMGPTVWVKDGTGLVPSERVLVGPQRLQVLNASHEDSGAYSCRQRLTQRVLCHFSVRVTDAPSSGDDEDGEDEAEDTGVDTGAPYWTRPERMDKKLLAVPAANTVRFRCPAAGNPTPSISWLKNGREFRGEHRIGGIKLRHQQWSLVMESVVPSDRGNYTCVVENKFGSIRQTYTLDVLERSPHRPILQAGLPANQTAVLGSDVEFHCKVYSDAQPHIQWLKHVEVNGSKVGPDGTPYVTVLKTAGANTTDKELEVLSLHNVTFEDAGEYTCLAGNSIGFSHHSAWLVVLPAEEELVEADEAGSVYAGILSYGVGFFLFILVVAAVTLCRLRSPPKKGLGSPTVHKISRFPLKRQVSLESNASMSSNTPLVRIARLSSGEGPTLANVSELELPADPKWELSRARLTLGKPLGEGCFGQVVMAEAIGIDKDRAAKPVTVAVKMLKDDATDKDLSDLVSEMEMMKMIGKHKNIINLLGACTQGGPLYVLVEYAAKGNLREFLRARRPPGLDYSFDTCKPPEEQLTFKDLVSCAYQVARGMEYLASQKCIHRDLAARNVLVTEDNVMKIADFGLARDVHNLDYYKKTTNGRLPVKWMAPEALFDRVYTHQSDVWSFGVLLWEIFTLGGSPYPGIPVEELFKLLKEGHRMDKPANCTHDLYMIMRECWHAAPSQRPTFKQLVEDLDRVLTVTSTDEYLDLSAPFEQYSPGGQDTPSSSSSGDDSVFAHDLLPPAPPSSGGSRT
Nature of the series: Enzyme binding assay (KINOMEscan) FGFR3. To be noted: pKd = -log Kd (M), read-out: FGFR3_pKd (converted). Here is the method:
as §3, §4

The next series addresses T7, FGFR4 (Homo sapiens, UniProt P22455).
T7 construct: purchased DiscoveRx Corporation
Briefly: Enzyme binding assay (KINOMEscan) FGFR4. The following applies: pKd = -log Kd (M), read-out: FGFR4_pKd (converted). Here is the method:
as §3, §4

In a further series the target is T8, VEGFR2 (Homo sapiens, UniProt P35968).
T8 construct: purchased DiscoveRx Corporation
T8 sequence (P35968 20-1356): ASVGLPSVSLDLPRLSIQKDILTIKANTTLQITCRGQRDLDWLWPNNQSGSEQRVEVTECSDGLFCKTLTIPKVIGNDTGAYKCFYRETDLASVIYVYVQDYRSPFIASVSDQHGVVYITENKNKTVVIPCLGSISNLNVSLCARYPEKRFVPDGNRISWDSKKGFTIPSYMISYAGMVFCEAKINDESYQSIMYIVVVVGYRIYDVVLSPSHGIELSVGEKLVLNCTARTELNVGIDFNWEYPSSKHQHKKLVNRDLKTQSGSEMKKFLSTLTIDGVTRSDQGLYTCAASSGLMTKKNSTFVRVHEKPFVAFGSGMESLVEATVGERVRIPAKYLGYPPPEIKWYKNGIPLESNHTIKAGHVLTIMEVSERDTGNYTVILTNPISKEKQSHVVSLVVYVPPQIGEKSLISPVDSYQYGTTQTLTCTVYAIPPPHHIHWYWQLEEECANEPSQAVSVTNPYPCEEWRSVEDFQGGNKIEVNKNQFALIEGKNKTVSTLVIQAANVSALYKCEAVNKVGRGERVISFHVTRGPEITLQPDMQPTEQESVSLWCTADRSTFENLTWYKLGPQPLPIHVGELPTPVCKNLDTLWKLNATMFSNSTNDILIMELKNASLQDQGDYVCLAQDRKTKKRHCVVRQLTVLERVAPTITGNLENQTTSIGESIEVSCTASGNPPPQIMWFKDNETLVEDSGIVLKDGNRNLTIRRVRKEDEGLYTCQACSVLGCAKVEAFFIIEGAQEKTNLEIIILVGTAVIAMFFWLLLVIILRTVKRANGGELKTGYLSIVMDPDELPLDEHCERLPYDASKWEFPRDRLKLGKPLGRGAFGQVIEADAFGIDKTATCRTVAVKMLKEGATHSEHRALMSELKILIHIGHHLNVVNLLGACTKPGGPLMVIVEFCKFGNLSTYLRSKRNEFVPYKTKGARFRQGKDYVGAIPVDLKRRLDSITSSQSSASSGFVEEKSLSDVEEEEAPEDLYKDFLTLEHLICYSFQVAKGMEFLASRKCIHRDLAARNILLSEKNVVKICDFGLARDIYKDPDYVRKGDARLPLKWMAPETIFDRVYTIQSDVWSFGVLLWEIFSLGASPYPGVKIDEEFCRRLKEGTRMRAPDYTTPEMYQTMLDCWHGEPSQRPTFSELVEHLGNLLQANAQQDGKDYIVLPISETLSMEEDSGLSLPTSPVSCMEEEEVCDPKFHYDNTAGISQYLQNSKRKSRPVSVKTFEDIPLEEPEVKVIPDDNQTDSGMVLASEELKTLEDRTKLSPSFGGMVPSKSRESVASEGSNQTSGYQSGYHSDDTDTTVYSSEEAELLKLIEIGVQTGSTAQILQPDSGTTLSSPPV
Briefly: Enzyme binding assay (KINOMEscan) VEGFR2. To be noted: pKd = -log Kd (M), read-out: VEGFR2_pKd (converted). The protocol: as §3, §4

Chain of FGFR3 (h) (P22607 23-806): as the sequence (P22607 23-806) above
T4 sequence (P11362 22-822): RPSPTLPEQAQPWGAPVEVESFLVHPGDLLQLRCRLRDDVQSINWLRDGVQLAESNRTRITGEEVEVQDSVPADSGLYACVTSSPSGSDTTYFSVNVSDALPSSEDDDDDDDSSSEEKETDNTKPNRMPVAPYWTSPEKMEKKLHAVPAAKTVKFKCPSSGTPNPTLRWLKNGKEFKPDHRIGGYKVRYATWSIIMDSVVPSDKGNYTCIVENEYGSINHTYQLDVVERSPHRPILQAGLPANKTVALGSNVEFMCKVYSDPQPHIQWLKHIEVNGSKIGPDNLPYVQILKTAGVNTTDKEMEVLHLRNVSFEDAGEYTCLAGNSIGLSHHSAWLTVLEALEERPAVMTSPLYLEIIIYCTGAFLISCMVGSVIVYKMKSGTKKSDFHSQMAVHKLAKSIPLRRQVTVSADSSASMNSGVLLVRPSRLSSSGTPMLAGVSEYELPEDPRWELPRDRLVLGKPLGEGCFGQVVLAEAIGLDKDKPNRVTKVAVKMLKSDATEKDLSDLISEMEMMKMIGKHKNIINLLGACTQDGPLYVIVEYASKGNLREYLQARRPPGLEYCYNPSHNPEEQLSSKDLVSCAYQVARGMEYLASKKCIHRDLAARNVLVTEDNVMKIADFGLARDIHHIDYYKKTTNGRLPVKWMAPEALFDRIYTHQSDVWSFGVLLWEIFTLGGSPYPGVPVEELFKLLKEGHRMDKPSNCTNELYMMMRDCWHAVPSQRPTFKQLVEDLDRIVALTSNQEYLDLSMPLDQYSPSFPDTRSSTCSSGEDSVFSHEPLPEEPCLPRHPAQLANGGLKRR
Chain of FGFR1 (h) (P11362 22-822): as above
Chain of KDR (h) (P35968 20-1356): as the sequence (P35968 20-1356) above

In the case of `COc1cc(OC)cc(N(CCO)c2ccc3ncn(-c4ccccc4)c(=O)c3c2)c1` [Compound 7], the melting point came out at 171 °C. Moreover, the IC50 against FGFR1 (h) is 631 nM. Also, the IC50 at FGFR2 (h) was 3.98e-07 M. The IC50 on FGFR3 (h) is 3.16e-07 M. On FGFR4 (h), the IC50 was 3.98e-06 M. For the same molecule, at KDR (h), the IC50 was above 1e-06 M. Besides, the “BAF3-FGFR1 (MIN IL3 pIC50)” value in series [1] is reported as below 5. For the same molecule, in series [2], the “BAF3-FGFR3 (MIN IL3 pIC50)” value was below 5. Also, the “BAF3-KDR (MIN IL3 pIC50)” value in series [3] is given as below 5. For the same molecule, the “BAF3-FGFR4 (pIC50)” value in series [4] is below 5. Further, on FGFR1, the Kd was above 1e-06 M. In addition, at FGFR2, the Kd was above 1e-06 M. Besides, the Kd at FGFR3 was above 1e-06 M. At FGFR4, the Kd is above 1e-06 M. Further, the Kd at VEGFR2 is above 1e-06 M.

Regarding `COc1cc(OC)c(F)c(N(CCNC(C)C)c2ccc3ncn(-c4cnn(C)c4)c(=O)c3c2)c1F` [Compound 19], the melting point is 162 °C. This molecule gave an IC50 against FGFR1 (h) of 5.01 nM. Besides, the IC50 at FGFR2 (h) was 1.58e-08 M. In addition, the IC50 on FGFR3 (h) was 1.58e-08 M. The IC50 on FGFR4 (h) is 2e-08 M. Further, the IC50 on KDR (h) is 1.26e-07 M. Further, the “BAF3-FGFR1 (MIN IL3 pIC50)” value in series [1] worked out at 8.8. For the same molecule, the “BAF3-FGFR3 (MIN IL3 pIC50)” value in [2] is recorded as 8.6. Further, the “BAF3-KDR (MIN IL3 pIC50)” value in [3] amounted to 6.2. In series [4], the “BAF3-FGFR4 (pIC50)” value was determined as 8.2. The Kd at FGFR1 is 1.58e-09 M. Besides, the Kd at FGFR2 was 5.01e-09 M. In addition, the Kd at FGFR3 is 5.01e-09 M. In addition, the Kd on FGFR4 is 5.01e-09 M. Moreover, on VEGFR2, the Kd is 1.58e-08 M.

These data come from patent publication US9493426B2, “Quinazolinone derivatives useful as FGFR kinase modulators” (priority 2013, dated 2016).
